Source: ChEMBL document CHEMBL3632508, “Discovery of α-mangostin as a novel competitive inhibitor against mutant isocitrate dehydrogenase-1” (Bioorg Med Chem Lett, 2015)

Assays:
[1] = system: Isocitrate dehydrogenase [NADP] cytoplasmic (Homo sapiens), O75874 [R132H]; test: Inhibition of human IDH1 R132H mutant expressed in IPTG-induced Escherichia coli BL21 cells assessed as oxidation of NADPH to NADP+ after 5 mins by spectrophotometry; parameters: concentration or dose not given beside the values
Chain of Isocitrate dehydrogenase [NADP] cytoplasmic (Homo sapiens), O75874 [R132H] (O75874 whole entry R132H): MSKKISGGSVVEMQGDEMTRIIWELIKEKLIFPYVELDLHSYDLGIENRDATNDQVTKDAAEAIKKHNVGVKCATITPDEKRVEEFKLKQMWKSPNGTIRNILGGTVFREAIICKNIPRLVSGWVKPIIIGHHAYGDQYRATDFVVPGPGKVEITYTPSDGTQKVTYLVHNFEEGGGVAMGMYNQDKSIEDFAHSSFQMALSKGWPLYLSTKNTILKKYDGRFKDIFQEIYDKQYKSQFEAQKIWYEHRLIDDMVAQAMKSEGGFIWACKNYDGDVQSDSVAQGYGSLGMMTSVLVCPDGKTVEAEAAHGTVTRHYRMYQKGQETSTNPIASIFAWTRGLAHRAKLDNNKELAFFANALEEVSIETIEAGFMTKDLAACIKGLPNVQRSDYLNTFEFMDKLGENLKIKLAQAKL

[2] = target: Isocitrate dehydrogenase [NADP] cytoplasmic (Homo sapiens) (UniProt O75874); test: Inhibition of human IDH1 expressed in IPTG-induced Escherichia coli BL21 cells assessed as reduction of NADP+ to NADPH after 5 mins by spectrophotometry; parameters: concentration or dose not given beside the values
Chain of Isocitrate dehydrogenase [NADP] cytoplasmic (Homo sapiens) (O75874 whole entry): as the sequence (O75874 whole entry R132H) above, with H132R counted along it

| Compound | Activity [1] | Activity [2] |
| --- | --- | --- |
| COc1ccc(-c2cc(=O)c3c(O)cc(O[C@@H]4O[C@H](COC5OC[C@@H](O)[C@H](O)[C@H]5O)[C@@H](O)[C@H](O)[C@H]4O)cc3o2)cc1O (some centres undefined) | 116% | 104% |
| CC(C)=CCC[C@](C)(O[C@@H]1O[C@H](CO[C@@H]2O[C@H](CO)[C@@H](O)[C@H](O)[C@H]2O)[C@@H](O)[C@H](O)[C@H]1O)[C@H]1CC[C@]2(C)[C@@H]1[C@H](O)C[C@@H]1[C@@]3(C)CC[C@H](O[C@@H]4O[C@H](CO)[C@@H](O)[C@H](O)[C@H]4O)C(C)(C)[C@@H]3CC[C@]12C | 102% | 122% |
| O=C(O)[C@H]1O[C@@H](Oc2cc3oc(-c4ccc(O)cc4)cc(=O)c3c(O)c2O)[C@H](O)[C@@H](O)[C@@H]1O | 91.5% | 88.8% |
| CC(C)CCC[C@@H](C)[C@H]1CC[C@H]2[C@@H]3CC=C4C[C@@H](O)CC[C@]4(C)[C@H]3CC[C@]12C | 96.3% | 105% |
| C[C@H]1[C@H](C)CC[C@]2(C(=O)O)CC[C@]3(C)C(=CC[C@@H]4[C@@]5(C)CC[C@H](O)C(C)(C)[C@@H]5CC[C@]43C)[C@H]12 | 114% | 102% |
| COc1c2c(cc3oc(C)cc(=O)c13)OC(C(C)(C)O)C2 (centres undefined) | 105% | 103% |
| O=C(O[C@H]1[C@@H]2C=CO[C@@H](O[C@@H]3O[C@H](CO)[C@@H](O)[C@H](O)[C@H]3O)[C@@H]2[C@@]2(CO)O[C@@H]12)c1ccc(O)c(O)c1 | 107% | 88.3% |
| O=C(/C=C/c1ccccc1)NCCCCNC(=O)c1ccc(O)cc1 | 106% | 100% |
| COc1ccc(-c2cc(=O)c3c(O)cc(O[C@@H]4O[C@H](CO)[C@@H](O)[C@H](O)[C@H]4O)cc3o2)cc1O | 112% | 108% |
| C=C1CC[C@@H]2[C@H]([C@H]3[C@H]1CC[C@]3(C)O)C2(C)C | 107% | 106% |
| CC1(C)CC[C@]2(C)CC[C@]3(C)C(=CC[C@@H]4[C@@]5(C)[C@@H](O)C[C@H](O)C(C)(C)[C@@H]5[C@H](O)C[C@]43C)[C@@H]2C1 | 99% | 98.6% |
| CC(C)=CCC[C@](C)(O[C@@H]1O[C@H](CO[C@@H]2O[C@H](CO)[C@@H](O)[C@H](O)[C@H]2O)[C@@H](O)[C@H](O)[C@H]1O)[C@H]1CC[C@]2(C)[C@@H]1[C@H](O)C[C@@H]1[C@@]3(C)CC[C@H](O[C@@H]4O[C@H](CO)[C@@H](O)[C@H](O)[C@H]4O[C@@H]4O[C@H](CO)[C@@H](O)[C@H](O)[C@H]4O)C(C)(C)[C@@H]3CC[C@]12C | 105% | 117% |
| COc1c2c(cc3oc(CO[C@@H]4O[C@H](CO)[C@@H](O)[C@H](O)[C@H]4O)cc(=O)c13)O[C@H](C(C)(C)O)C2 | 112% | 96.8% |
| C/C=C(/C)C(=O)O[C@H]1Cc2c(cc3oc(CO)cc(=O)c3c2O)OC1(C)C | 108% | 102% |
| COc1ccc(-c2oc3c(CC=C(C)C)c(O[C@@H]4O[C@H](CO)[C@@H](O)[C@H](O)[C@H]4O)cc(O)c3c(=O)c2O[C@@H]2O[C@@H](C)[C@H](O)[C@@H](O)[C@H]2O)cc1 | 104% | 90.4% |
| CC1(C)CC[C@]2(C)CC=C3[C@]4(C)CC[C@H]5C(C)(C)[C@@H](O)CC[C@]5(C)[C@H]4CC[C@@]3(C)[C@@H]2C1 | 109% | 106% |
| COc1ccc(/C=C/C(=O)O[C@H]2[C@@H]3C=CO[C@@H](O[C@@H]4O[C@H](CO)[C@@H](O)[C@H](O)[C@H]4O)[C@@H]3[C@@]3(CO)O[C@@H]23)cc1O | 108% | 107% |
| O=c1c(O)c(-c2ccc(O)cc2)oc2cc(O)cc(O)c12 | 112% | 104% |
| CC1(C)CC[C@]2(C)CC[C@]3(C)C(=CC[C@@H]4[C@@]5(C)CC[C@H](O)C(C)(C)[C@@H]5[C@H](O)C[C@]43C)[C@@H]2C1 | 114% | 102% |
| O=C(/C=C/c1ccc(O)cc1)c1ccc(O)cc1O | 98.1% | 94.6% |
| O=c1cc(-c2ccc(O)cc2)oc2cc(O)c(O)c(O)c12 | 92% | 89% |

| Compound | Activity [1] | Activity [2] |
| --- | --- | --- |
| C/C=C(/C)C(=O)O[C@H]1Cc2c(cc3oc(C)cc(=O)c3c2O)OC1(C)C | 105% | 97.8% |
| O=c1c(O)c(-c2cc(O)c(O)c(O)c2)oc2cc(O)cc(O)c12 | 93.2% | 95.5% |
| O=c1cc(-c2ccc(O)cc2)oc2cc(O)cc(O)c12 | 84% | 97.4% |
| CC[C@H](/C=C/[C@@H](C)[C@H]1CC[C@H]2[C@@H]3CC=C4C[C@@H](O)CC[C@]4(C)[C@H]3CC[C@]12C)C(C)C | 101% | 111% |
| C[C@H]1[C@H](C)CC[C@]2(C)CC[C@]3(C)C(=CC[C@@H]4[C@@]5(C)CC[C@H](O)C(C)(C)[C@@H]5CC[C@]43C)[C@H]12 | 112% | 105% |
| O=C1C[C@@H](c2ccc(O)cc2)Oc2cc(O)cc(O)c21 | 109% | 102% |
| CC1(C)CC[C@]2(C)CC[C@]3(C)C(=CC[C@@H]4[C@@]5(C)[C@@H](O)C[C@H](O)C(C)(C)[C@@H]5CC[C@]43C)[C@@H]2C1 | 111% | 99.2% |
| O=c1c(O)c(-c2ccccc2)oc2cc(O)cc(O)c12 | 95% | 89.1% |
| CC(C)=CCc1c(O)c(CC=C(C)C)c2oc3c(O)cccc3c(=O)c2c1O | 109% | 92.8% |
| COc1c2c(cc3oc(C)cc(=O)c13)OC(C(C)(C)O[C@H]1O[C@@H](CO)[C@H](O)[C@@H](O)[C@@H]1O)C2 (some centres undefined) | 108% | 107% |
| O=c1cc(-c2ccccc2)oc2cc(O)cc(O)c12 | 96.7% | 97.6% |
| Cc1cc(=O)c2c(O)c3c(cc2o1)OC(C)(C)[C@@H](O)C3 | 105% | 98.2% |
| COc1c(O)cc2oc3cc(O)c4c(c3c(=O)c2c1CC=C(C)C)OC(C)(C)CC4 | 106% | 100% |
| C[C@H]1C(=O)CC[C@@H]2[C@]1(C)CC[C@H]1[C@@]2(C)CC[C@@]2(C)[C@@H]3CC(C)(C)CC[C@]3(C)CC[C@]12C | 108% | 104% |
| CC1(C)CC[C@]2(C(=O)O)CC=C3[C@]4(C)CC[C@H]5C(C)(C)[C@@H](O)CC[C@]5(C)[C@H]4CC[C@@]3(C)[C@@H]2C1 | 113% | 103% |
| C[C@H]1[C@@H](O)CC[C@@H]2[C@]1(C)CC[C@H]1[C@@]2(C)CC[C@@]2(C)[C@@H]3CC(C)(C)CC[C@]3(C)CC[C@]12C | 113% | 109% |
| COc1c(O)cc2oc3cc4c(c(O)c3c(=O)c2c1CC=C(C)C)C=CC(C)(C)O4 | 98.7% | 109% |
| CC1(C)CC[C@]2(C(=O)O)CC[C@]3(C)C(=CC[C@@H]4[C@@]5(C)CC[C@H](O)C(C)(C)[C@@H]5CC[C@]43C)[C@@H]2C1 | 117% | 101% |
| COc1ccc(C(=O)O[C@H]2[C@@H]3C=CO[C@@H](O[C@@H]4O[C@H](CO)[C@@H](O)[C@H](O)[C@H]4O)[C@@H]3[C@@]3(CO)O[C@@H]23)cc1OC | 97.7% | 107% |
| CC[C@H](CC[C@@H](C)[C@H]1CC[C@H]2[C@@H]3CC=C4C[C@@H](O)CC[C@]4(C)[C@H]3CC[C@]12C)C(C)C | 98.8% | 105% |
| CCCCCCCCCCCCC/C=C1/C(=O)O[C@H](C)[C@@H]1O | 114% | 111% |
